# Values of other authors, collected in PubChem BioAssay AID1259409 (Chemical Carcinogenesis Research Information System (CCRIS), 2018).
# Several values for one entry are separate records, joined by “and”; a condition that tells them apart may be missing. Equal entries are not always repeated.
# Tested on: rodent chemically induced tumor inhibition, incidence and multiplicity
# Assay: CCRIS tumor inhibitor studies
# Settings: for outcome: Species: Rat
# [1] = Carcinogen: BENZO[A]PYRENE, 50-32-8, Dose [Inhibitor]: 0.03 MMOL/G OF DIET DAILY STARTING 7 D BEFORE AND CONTINUING THROUGH 3 D AFTER CARCINOGEN TREATMENT FOLLOWED BY OBSERVAT, Route [Inhibitor]: ORAL, Species: MOUSE, Strain/Sex: ICR/FEMALE, Target Tissue: Type of Lesion: FORESTOMACH: NEOPLASM, Dose [Carcinogen]: 1 MG IN 0.2 ML CORN OIL 2/WK FOR 4 WK, Promoter: NONE USED
structure (smiles),measurement,setting,value
Oc1ccc(/C=C/c2cc(O)cc(O)c2)cc1,outcome,"Carcinogen: Diethylnitrosamine, 55-18-5, Dose [Inhibitor]: 0, 50, 100, 300 mg/kg bw for 20 wk, Dose [Inhibitor]: 0, 50, 100, 300 mg/kg bw for 20 wk, Route [Inhibitor]: Oral (diet), Strain/Sex: Sprague-Dawley/Female, Target Tissue: Type of Lesion: Liver: nodules, Dose [Carcinogen]: 200 mg/kg bw once in peanut oil after 4 wk on diet, study duration 20 wk, Promoter: Phenobarbital, 50-06-6",100%; 78%; 50% (p<0.05); 40% (p<0.05)
CC(=O)Oc1c(C)c(C)c2c(c1C)CCC(C)(CCCC(C)CCCC(C)CCCC(C)C)O2 (configuration not stated),"tumour outcome (control, treated, inhibition, significance)","Carcinogen: 7,12-DIMETHYLBENZ[A]ANTHRACENE, 57-97-6, Dose [Inhibitor]: 1000 MG/KG IN 20% CORN OIL DIET DAILY STARTING 2 WK BEFORE CARCINOGEN TREATMENT AND CONTINUING FOR DURATION OF STUDY (ST, Route [Inhibitor]: ORAL, Species: RAT, Strain/Sex: SPRAGUE-DAWLEY/FEMALE, Target Tissue: Type of Lesion: MAMMARY GLAND: ADENOCARCINOMA, Dose [Carcinogen]: 10 MG ONCE AT AGE 50 D","28/30 (93%), 27/30 (90%), 3%, not significant"
same,"tumour outcome (control, treated, inhibition, significance)","Carcinogen: UV-B IRRADIATION, Dose [Inhibitor]: 25, 100 UG/KG IN DIET FOR DURATION OF STUDY BEGINNING 3 WK PRIOR TO IRRADIATION (STUDY DURATION: 40 WK), Route [Inhibitor]: ORAL, Species: MOUSE, Strain/Sex: C3H/HEN/FEMALE, Target Tissue: Type of Lesion: SKIN: TUMOR, Dose [Carcinogen]: 6.4 J/M2/SEC 30 MIN/D 5 D/WK FOR 13 WK , IRRADIATION DISCONTINUED FOR 3 WK DUE TO TOXICITY THEN IT WAS RESUMED FOR 2 WK, Promoter: NONE USED","67%, 46%, 31%, not calculated"
same,"tumour outcome (control, treated, inhibition, significance)","Carcinogen: UV-B IRRADIATION, Dose [Inhibitor]: 25, 200 UG/KG IN DIET FOR DURATION OF STUDY BEGINNING 3 WK PRIOR TO IRRADIATION (STUDY DURATION: 40 WK), Route [Inhibitor]: ORAL, Species: MOUSE, Strain/Sex: C3H/HEN/FEMALE, Target Tissue: Type of Lesion: SKIN: TUMOR, Dose [Carcinogen]: 6.4 J/M2/SEC 30 MIN/D 5 D/WK FOR 13 WK, IRRADIATION DISCONTINUED FOR 3 WK DUE TO TOXICITY THEN IT WAS RESUMED FOR 2 WK, Promoter: NONE USED","67%, 19%, 72%, not calculated"
CCCCC1OC(=O)C2=CCCCC21 (configuration not stated),"tumour outcome (control, treated, inhibition, significance)","Carcinogen: BENZO[A]PYRENE, 50-32-8, Dose [Inhibitor]: 0, 20 MG 3/WK FOR 4 WK ON DAYS OTHER THAN THE CARCINOGEN TREATMENT (STUDY DURATION: 20 WK), Route [Inhibitor]: GAVAGE, Species: MOUSE, Strain/Sex: STRAIN-A/FEMALE, Target Tissue: Type of Lesion: FORESTOMACH: TUMOR, Dose [Carcinogen]: 1 MG IN 0.2 ML COTTONSEED OIL 2/WK FOR 4 WK, Promoter: NONE USED","13/19 (68%), 2/18 (11%), 84%, p<0.025"
O=C1C[C@@H](c2ccc(O)cc2)Oc2cc(O)cc(O)c21,"tumour outcome (control, treated, inhibition, significance)","Carcinogen: 7,12-DIMETHYLBENZ[A]ANTHRACENE, 57-97-6, Dose [Inhibitor]: 100 UG IN 0.2 ML ACETONE ONCE 5 MIN BEFORE CARCINOGEN TREATMENT (STUDY DURATION: 31 WK), Route [Inhibitor]: DERMAL, Species: MOUSE, Strain/Sex: CD-1/FEMALE, Target Tissue: Type of Lesion: SKIN: PAPILLOMA, Dose [Carcinogen]: 10 NMOL IN 0.2 ML ACETONE ONCE, Promoter: 12-O-TETRADECANOYLPHORBOL-13-ACETATE, 16561-29-8","87%, 94%, -8%, not calculated"
same,outcome,"Carcinogen: N-Methyl-N'-nitro-N-nitrosoguanidine (70-25-7) and saturated sodium chloride (7647-14-5), Dose [Inhibitor]: 200 mg/kg bw dissolved in corn oil for 20 wk from first dose of MNNG + NaCl and from the 6th wk of MNNG + NaCl induction, Route [Inhibitor]: Gavage, Strain/Sex: Wistar/Male, Target Tissue: Type of Lesion: Stomach, Dose [Carcinogen]: 200 mg/kg at days 0 and 14 (MNNG) and 1 ml/rat 3 days for 4 wk (NaCl); study duration 20 wk), Promoter: None",0 (0) in negative controls; 6 (100) in positive controls; 0 (0) simultaneous tre
CC(C)(C)c1cc(-c2cc(C(C)(C)C)c(O)c(C(C)(C)C)c2)cc(C(C)(C)C)c1O,"tumour outcome (control, treated, inhibition, significance)",[1],"90%, 89%, 1%, not significant"
Oc1c(F)c(F)cc(F)c1F,"tumour outcome (control, treated, inhibition, significance)",[1],"100%, 95%, 5%, not significant and 97%, 84%, 13%, not significant"
C[C@]12CC[C@H](OS(=O)(=O)O)CC1=CC[C@@H]1[C@@H]2CC[C@]2(C)C(=O)CC[C@@H]12,"tumour outcome (control, treated, inhibition, significance)","Carcinogen: 7,12-DIMETHYLBENZ[A]ANTHRACENE, 57-97-6, Dose [Inhibitor]: 0, 1 X 0.5 CM LONG SILASTIC IMPLANT 7 D PRIOR TO CARCINOGEN TREATMENT (STUDY DURATION: 111 D), Route [Inhibitor]: SUBCUTANEOUS IMPLANT, Species: RAT, Strain/Sex: SPRAGUE-DAWLEY/FEMALE, Target Tissue: Type of Lesion: MAMMARY GLAND: CARCINOMA, Dose [Carcinogen]: 20 MG IN 1 ML CORN OIL ADMINISTERED ON DAYS 50 TO 52 OF AGE, Promoter: NONE USED","68%, 41%, 40%, not significant"
same,"tumour outcome (control, treated, inhibition, significance)","Carcinogen: 7,12-DIMETHYLBENZ[A]ANTHRACENE, 57-97-6, Dose [Inhibitor]: 0, 1 X 1 CM LONG SILASTIC IMPLANT 7 D PRIOR TO CARCINOGEN TREATMENT (STUDY DURATION: 111 D), Route [Inhibitor]: SUBCUTANEOUS IMPLANT, Species: RAT, Strain/Sex: SPRAGUE-DAWLEY/FEMALE, Target Tissue: Type of Lesion: MAMMARY GLAND: CARCINOMA, Dose [Carcinogen]: 20 MG IN 1 ML CORN OIL ADMINISTERED ON DAYS 50 TO 52 OF AGE, Promoter: NONE USED","68%, 44%, 35%, not significant"
same,"tumour outcome (control, treated, inhibition, significance)","Carcinogen: 7,12-DIMETHYLBENZ[A]ANTHRACENE, 57-97-6, Dose [Inhibitor]: 0, 1 X 3 CM LONG SILASTIC IMPLANT 7 D PRIOR TO CARCINOGEN TREATMENT (STUDY DURATION: 111 D), Route [Inhibitor]: SUBCUTANEOUS IMPLANT, Species: RAT, Strain/Sex: SPRAGUE-DAWLEY/FEMALE, Target Tissue: Type of Lesion: MAMMARY GLAND: CARCINOMA, Dose [Carcinogen]: 20 MG IN 1 ML CORN OIL ADMINISTERED ON DAYS 50 TO 52 OF AGE, Promoter: NONE USED","68%, 22%, 68%, p<0.01"
same,"tumour outcome (control, treated, inhibition, significance)","Carcinogen: 7,12-DIMETHYLBENZ[A]ANTHRACENE, 57-97-6, Dose [Inhibitor]: 0, 3 X 3 CM LONG SILASTIC IMPLANT 7 D PRIOR TO CARCINOGEN TREATMENT (STUDY DURATION: 111 D), Route [Inhibitor]: SUBCUTANEOUS IMPLANT, Species: RAT, Strain/Sex: SPRAGUE-DAWLEY/FEMALE, Target Tissue: Type of Lesion: MAMMARY GLAND: CARCINOMA, Dose [Carcinogen]: 20 MG IN 1 ML CORN OIL ADMINISTERED ON DAYS 50 TO 52 OF AGE, Promoter: NONE USED","68%, 11%, 84%, p<0.01"
same,"tumour outcome (control, treated, inhibition, significance)","Carcinogen: 7,12-DIMETHYLBENZ[A]ANTHRACENE, 57-97-6, Dose [Inhibitor]: 0, 6 X 3 CM LONG SILASTIC IMPLANT 7 D PRIOR TO CARCINOGEN TREATMENT (STUDY DURATION: 111 D), Route [Inhibitor]: SUBCUTANEOUS IMPLANT, Species: RAT, Strain/Sex: SPRAGUE-DAWLEY/FEMALE, Target Tissue: Type of Lesion: MAMMARY GLAND: CARCINOMA, Dose [Carcinogen]: 20 MG IN 1 ML CORN OIL ADMINISTERED ON DAYS 50 TO 52 OF AGE, Promoter: NONE USED","68%, 4%, 94%, p<0.01"
same,"tumour outcome (control, treated, inhibition, significance)","Carcinogen: N-NITROBIS(2-OXOPROPYL)AMINE, 60599-38-4, Dose [Inhibitor]: 0, 350 MG/KG ONCE ON DAY 1 OF STUDY (STUDY DURATION: 70 D), Route [Inhibitor]: INTRAPERITONEAL, Species: HAMSTER, Strain/Sex: SYRIAN/FEMALE, Target Tissue: Type of Lesion: PANCREAS: CARCINOMA, Dose [Carcinogen]: 70 MG/KG ONCE ON DAY 1 OF STUDY THEN ONCE ON DAYS 17 AND 32 OF STUDY, Promoter: ETHIONINE, 67-21-0, METHIONINE, 63-68-3, Promoter: ETHIONINE, 67-21-0, METHIONINE, 63-68-3","8/15 (53%), 6/15 (40%), 25%, not significant"
same,"tumour outcome (control, treated, inhibition, significance)","Carcinogen: N-NITROSOBIS(2-OXOPROPYL)AMINE, 60599-38-4, Dose [Inhibitor]: 0, 175 MG/KG ONCE ON DAY 1 OF STUDY (STUDY DURATION: 70 D), Route [Inhibitor]: INTRAPERITONEAL, Species: HAMSTER, Strain/Sex: SYRIAN/FEMALE, Target Tissue: Type of Lesion: PANCREAS: CARCINOMA, Dose [Carcinogen]: 70 MG/KG ONCE ON DAY 1 OF STUDY THEN ONCE ON DAYS 17 AND 32 OF STUDY, Promoter: ETHIONINE, 67-21-0, METHIONINE, 63-68-3, Promoter: ETHIONINE, 67-21-0, METHIONINE, 63-68-3","8/15 (53%), 9/16 (56%), -7%, not significant"
CC1(C)CC[C@]2(CO)CC[C@]3(C)C(=CC[C@@H]4[C@@]5(C)CC[C@H](O)[C@@](C)(CO)[C@@H]5CC[C@]43C)[C@H]2C1,"tumour outcome (control, treated, inhibition, significance)","Carcinogen: 7,12-DIMETHYLBENZ[A]ANTHRACENE, 57-97-6, Dose [Inhibitor]: 81 NMOL IN 100 µL ACETONE/DMSO (99:1) APPLIED 40 MIN PRIOR TO EACH PROMOTER DOSE (STUDY DURATION: 18 WK), Route [Inhibitor]: DERMAL, Species: MOUSE, Strain/Sex: ICR, Target Tissue: Type of Lesion: SKIN: CARCINOMA, Dose [Carcinogen]: 100 UG ONCE, Promoter: 12-O-TETRADECANOYLPHORBOL-13-ACETATE, 16561-29-8","100%, 20%, 80%, not calculated"
